Reference: PubChem BioAssay (NCI)
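Test compounds were applied to cells in 96-well plates for 48 hours at 5 doses. TGI marks complete inhibition of growth.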

How the values were obtained:
Assay in all cases: DTP human tumour cell line panel, 48 h
CCRF-CEM leukemia = test system: CCRF-CEM leukemia
EKVX NSCLC = test system: EKVX NSCLC
HOP-92 NSCLC = test system: HOP-92 NSCLC
OVCAR-3 ovarian = test system: OVCAR-3 ovarian
UACC-62 melanoma = test system: UACC-62 melanoma
DU-145 prostate = test system: DU-145 prostate
NCI-H23 lung = test system: NCI-H23 lung
A498 renal = test system: A498 renal
BT-549 breast = test system: BT-549 breast
ACHN renal = test system: ACHN renal
NCI-H226 lung = test system: NCI-H226 lung
A549 NSCLC = test system: A549 NSCLC
U251 CNS = test system: U251 CNS
KM12 colon = test system: KM12 colon
HT29 colon = test system: HT29 colon
OVCAR-5 ovarian = test system: OVCAR-5 ovarian
LOX IMVI melanoma = test system: LOX IMVI melanoma
786-0 renal = test system: 786-0 renal
SF-268 CNS = test system: SF-268 CNS
T-47D breast = test system: T-47D breast

| SMILES | TGI (CCRF-CEM leukemia) [µM] | TGI (EKVX NSCLC) [µM] | TGI (HOP-92 NSCLC) [µM] | TGI (OVCAR-3 ovarian) [µM] | TGI (UACC-62 melanoma) [µM] | TGI (DU-145 prostate) [µM] | TGI (NCI-H23 lung) [µM] | TGI (A498 renal) [µM] | TGI (BT-549 breast) [µM] | TGI (ACHN renal) [µM] | TGI (NCI-H226 lung) [µM] | TGI (A549 NSCLC) [µM] | TGI (U251 CNS) [µM] | TGI (KM12 colon) [µM] | TGI (HT29 colon) [µM] | TGI (OVCAR-5 ovarian) [µM] | TGI (LOX IMVI melanoma) [µM] | TGI (786-0 renal) [µM] | TGI (SF-268 CNS) [µM] | TGI (T-47D breast) [µM] |
| --- | --- | --- | --- | --- | --- | --- | --- | --- | --- | --- | --- | --- | --- | --- | --- | --- | --- | --- | --- | --- |
| Clc1ncnc2c1nc(C#Cc1ccccc1)n2Cc1ccccc1 | > 100 | 29.3 | 59.9 | 21.6 | > 100 | 29 | 42.8 | > 100 | 49.8 | > 100 | > 100 | > 100 | 34.9 | > 100 | 72.2 | > 100 | 28.3 | > 100 | > 100 | > 100 |
| CO[C@@H](c1ccccc1)[C@H](O)[C@](O)(c1ccccc1)P(=O)(OC)OC | > 100 | > 100 | > 100 | > 100 | > 100 | > 100 | > 100 | > 100 | > 100 | > 100 | > 100 | > 100 | > 100 | > 100 | > 100 | > 100 | > 100 | > 100 | > 100 | > 100 |
| N=c1oc2ccc(Cl)cc2cc1C(=O)Nc1ccccc1 | > 100 | > 100 | > 100 | > 100 | > 100 | > 100 | > 100 | > 100 | > 100 | > 100 | > 100 | > 100 | > 93 | > 100 | > 100 | > 100 | > 100 | > 100 | > 100 | > 44.8 |
| COc1ccc(C2NC3=C(CCCC3)C3(C#N)C(=O)N=C(N)C23C#N)cc1 (centres undefined) | 91.9 | > 100 | > 100 |  | > 100 | > 100 | > 100 | > 100 | > 100 | > 100 | > 100 | > 100 | > 100 | > 100 | > 100 | > 100 | > 100 | > 100 | > 100 | > 100 |
| CC1CC[C@@]2(OC1)OC1C[C@H]3[C@@H]4CC[C@H]5CC(OC6OC(CO)C(OC7OC(CO)C(O)C(O)C7O)C(O)C6O)CCC5(C)[C@H]4CCC3(C)C1[C@@H]2C (some centres undefined) | 21.7 | 12.2 | 16.5 | 14.6 | 17.6 | 18 | 16.2 | 16.3 | 11 | 14.5 | 16.5 | 19.6 | 17.4 | 15.8 | 15.8 | 17.2 | 12.3 | 15.6 | 18.1 | 20.4 |
| Cc1cc(C)c(C)c(-n2[nH]c(=O)n(C)c2=O)c1C | > 100 | > 100 | > 100 | > 100 | > 100 | > 100 | > 100 | > 100 | > 100 | > 100 | > 100 | > 100 | > 100 | > 100 | > 100 | > 100 | > 100 | > 100 | > 100 | > 100 |
| CN(N)/N=N/c1nc[nH]c1C(N)=O | > 27 | > 100 | > 100 | > 100 | > 100 | > 100 | > 100 | > 100 | > 100 | > 100 | > 100 | > 100 | > 100 | > 82.4 | > 100 | > 100 | > 100 | > 100 | > 100 | > 100 |
| O=C(O)C/C(=C\c1ccccc1)C(=O)O | > 100 | > 100 | > 100 | > 100 | > 100 | > 100 | > 100 | > 100 | > 100 | > 100 | > 100 | > 100 | > 100 | > 100 | > 100 | > 100 | > 100 | > 100 | > 100 | > 100 |
| C/C(=N\NC(N)=O)C(CN(C)C)C(c1ccccc1)c1c(O)c2ccccc2oc1=O (centres undefined) | > 100 | > 100 | 7.67 | > 100 | > 100 | > 100 | > 100 | > 100 | > 100 | > 100 | > 100 | > 100 | > 100 | > 100 | > 100 | > 100 | > 100 | > 100 | > 100 | > 100 |
| CCCCCCCC(=O)N/N=C/c1ccc(Sc2nccn2C)c([N+](=O)[O-])c1 | 17.2 | 42.8 | 15 | 36.4 | 25.8 | 46.7 | 42.9 | 32 | 34.2 | 75.2 | 32.5 | > 100 | 32.2 | 32.1 | 23.4 | 39.2 | 22.6 | 32.4 | 32 | 37 |
| NC1=Nc2ccccc2Sc2nnc(-c3ccc(Cl)cc3)n21 | 56.2 | > 100 | > 100 | > 100 | > 100 | > 100 | > 100 | > 100 | > 100 | > 100 | > 100 | > 100 | 80.6 | > 100 | > 100 | > 100 | > 100 | 82.6 | 95.3 | > 100 |
| CN(C)Cc1cc(N=Nc2ccccc2Cl)cc(CN(C)C)c1O | 76.7 | > 100 | > 100 | > 100 | 64.1 | > 100 | > 100 | > 100 | > 100 | > 100 | > 100 | > 100 | > 100 | > 100 | > 100 | > 100 | 38.7 | > 100 | > 100 | > 100 |
| CN(C)c1ccc(/C=C/c2cc[n+](C)c3ccccc23)cc1 | > 61.9 | > 100 | 7.85 | 13.5 | 12 | 52.2 | 12.5 | > 58.8 | 8.44 | 36.5 | 16.2 | > 90.8 | 15.9 | 10.7 | 12.2 | 24.9 | 14.1 | 17 | 21.5 | 16.6 |
| CCOC(=O)C1(Cc2c[nH]c3ccccc23)C(O)CCCN1C(C)=O (centres undefined) | > 100 | > 100 | > 100 | > 100 | > 100 | > 100 | > 100 | > 100 | > 100 | > 100 | > 100 | > 100 | > 100 | > 100 | > 100 | > 100 | > 100 | > 100 | > 100 | > 100 |
| CC(C)(C)OC(=O)CN1CCNCCN(CC(=O)OC(C)(C)C)CC1 | > 100 | > 100 | > 100 | > 100 | > 100 | > 100 |  | > 100 | > 100 | > 100 | > 100 | > 100 |  | > 100 | > 100 | > 100 | > 100 | > 100 |  | > 100 |
| O=C1N[C@@H]([C@H](CCCCCO)OC(=O)c2ccccc2)CO1 | > 100 | > 100 | > 100 | > 100 | > 100 | > 100 |  | > 100 | > 100 | > 100 | > 100 | > 100 | > 100 | > 100 | > 100 | > 100 | > 100 | > 100 |  | > 100 |
| O=[N+]([O-])c1ccc(N=NN2CCCC2)cc1 | > 100 | > 100 | > 100 | > 100 | > 100 | > 100 | > 100 | > 100 | > 100 | > 100 | > 100 |  | > 100 | > 100 |  | > 100 | > 100 | > 100 | > 100 | > 100 |
| O=C1CC(CC(OCc2ccccc2)C(COCc2ccccc2)OCc2ccccc2)CC(=O)N1 (centres undefined) | > 100 | 92.8 | 86.1 | > 100 |  | > 100 | > 100 | > 100 | 49.8 | > 100 | > 100 | > 100 | > 100 | > 100 | 65.9 | > 100 | > 100 | > 100 | > 100 | 94.5 |
| Cc1ccc(-c2n[nH]c(=O)[nH]2)cc1 | > 100 | > 100 | > 46.4 | > 100 | > 100 | > 100 | > 100 | > 100 | > 100 | > 100 | > 100 | > 100 | > 100 | > 100 | > 100 | > 100 | > 100 | > 100 | > 100 | > 46.4 |
| CC(=O)Nc1ccc(N2C(=O)/C(=C\c3cccc(Oc4ccccc4)c3)SC2c2ccccc2)cc1 (centres undefined) | 41.1 | > 100 | 40.2 | > 100 | > 100 | > 100 | > 100 | > 100 | > 100 | > 100 | > 100 | > 100 | 30.4 | 90.5 |  | > 100 | 34.3 | > 100 | > 100 | > 100 |
| Cc1ccc(-n2cnc3c(N/N=C4\SCC(=O)N4c4ccccc4)ncnc32)cc1 | 4.93 | 29 | 11.3 | 11.5 | 17.2 | 17.5 | 14 | 27.2 | 14.1 | 18.6 | 20.4 | 29.6 | 16.2 | 7.88 | 15 | 25.4 | 10.3 | 12.1 | 19.7 | 18.7 |
| N#Cc1c2c([nH]c(=O)c1C#N)CCCC2 | > 100 | > 100 | > 100 | > 100 | > 100 | > 100 | > 100 | > 100 | > 100 | > 100 | > 100 | > 100 | > 100 | > 100 | > 100 | > 100 | > 100 | > 100 | > 100 | > 100 |
| Cn1c(COC(=O)NC2CCCCC2)c(COC(=O)NC2CCCCC2)c2ccc3cc(Cl)c(Cl)cc3c21 | 11.3 | > 100 | 19.5 | 29.9 | 24.1 | 84.7 | 40.5 | 25.9 | 30.5 | 32.3 | > 100 | > 100 |  | 36.4 | 69.3 | 34.5 | 30.6 | 30.3 | 24.5 | 22.4 |
| CSc1c(C(=O)Nc2ccc(Cl)cc2)c(N)[nH]c(=O)c1C#N | > 100 | > 80 | 59.9 | 63 | > 100 | > 100 | 53.3 | 62.1 | > 91.1 | > 100 | > 100 | > 100 | > 71.4 | > 100 | > 66.4 | > 89.2 | > 25.8 | 77.9 | > 100 | > 83.3 |
